We go through 3 molecules from patent publication US11542254B2, “Methods and composition of 4-substituted benzoylpiperazine-1-substituted carbonyls as beta-catenin/B-cell lymphoma 9 inhibitors” (University of Utah Research Foundation, priority 2016, dated 2023).

Usually Ki stands for the equilibrium dissociation constant of an inhibitor or competing ligand from its target. As a reminder, the IC50 is the point on the concentration scale where inhibition reaches its midpoint.

Entries after “also recorded” stand apart in the source; their conditions may differ. Where a name gives a salt, the structure may show the parent alone. Read-outs that look alike come from different tables or passages of the source.

One test deals with β-catenin/BCL9 PPI (Homo sapiens (Human), UniProt P35222). The experiment in a line: AlphaScreen competitive inhibition assay, wild-type β-catenin/BCL9 PPI. As to conditions: wild-type β-catenin/BCL9 PPI, AlphaScreen competitive inhibition, mean ± SD (n=3). The class given is binding. On the procedure:
Cells were cultured in LB medium with 30 μg/mL kanamycin until the OD600 was approximately 0.8, and then protein expression was induced with 400 μM of IPTG at 20° C. overnight. Cells were lysed by sonication. […] Native non-denaturing gel electrophoresis was performed to confirm the homogeneity of the purified proteins. Thermal-shift assay was performed on an iCycler iQ Real Time Detection System (Bio-Rad) to monitor protein stability and detect protein aggregation. Protein unfolding was evaluated through measuring the fluorescence changes of fluorescent dye Sypro Orange when interacting with wild-type or mutant β-catenin proteins. A temperature increment of 1°/min was applied. […] All spectra were recorded at room temperature, and the baseline control containing all of the substances except protein. Sample were prepared at a concentration around 1-5 μM in a buffer of 10 mM potassium phosphate and 100 mM potassium fluoride at pH 7.0 to ensure that the transmission of light through the sample was not restricted. […] Proteins were aliquoted and stored at −80° C.
25. Alphascreen Competitive Inhibition Assays Using Wild-Type and Mutant β-Catenin Proteins
(Alpha assays give light when donor and acceptor beads are brought close together.)

A further test relates to SW480 cells. The experiment in a line: MTS cell viability assay, SW480. Format: cell-based. As to conditions: read-out: IC50 ± SD. On the procedure: (§1) 26. MTS Cell Viability Assay
(§2) Colorectal cancer cell lines, SW480 and HCT116 were seeded in 96-well plates at 4×10^3 cells/well, maintained overnight at 37° C., and incubated with the tested compounds at various concentrations. Cell viability was monitored after 72 h using a freshly prepared mixture of 1 part phenazine methosulfate (PMS, Sigma) solution (0.92 mg/mL) and 19 parts 3-(4,5-dimethylthiazol-2-yl)-5-(3-carboxymethoxyphenyl)-2-(4-sulfophenyl)-2H-tetrazolium (MTs, Promega) solution (2 mg/mL). Cells were incubated in 10 μL of this solution at 37° C. for 3 h, and A490 was measured. […] Experiments were performed in triplicate.

Another test relates to HCT116 cells. The experiment in a line: MTS cell viability assay, HCT116. Format: cell-based. The conditions noted are these: read-out: IC50 ± SD. On the procedure:
as §1, §2
(Tetrazolium dyes change colour on reduction, which living cells bring about.)

The next test deals with β-catenin D145A/BCL9 PPI (Homo sapiens (Human), UniProt P35222, D145A). The experiment in a line: AlphaScreen competitive inhibition assay, β-catenin D145A mutant/BCL9 PPI. The class given is binding. On the procedure:
(§3) β-Catenin mutants D145A, E155A, D145A/E155A have been made previously.^5 Wild-type β-catenin and its mutants (residues 138-686) were cloned into a pET-28b vector carrying a C-terminal 6×histidine (Novagen), and transformed into Escherichia coli BL21 DE3 (Novagen). Cells were cultured in LB medium with 30 μg/mL kanamycin until the OD600 was approximately 0.8, and then protein expression was induced with 400 μM of IPTG at 20° C. overnight. Cells were lysed by sonication. […] The purity of β-catenin was greater than 95% as determined by SDS-PAGE gel analysis. Native non-denaturing gel electrophoresis was performed to confirm the homogeneity of the purified proteins. Thermal-shift assay was performed on an iCycler iQ Real Time Detection System (Bio-Rad) to monitor protein stability and detect protein aggregation. Protein unfolding was evaluated through measuring the fluorescence changes of fluorescent dye Sypro Orange when interacting with wild-type or mutant β-catenin proteins. A temperature increment of 1°/min was applied. CD spectra were measured on a J-815 spectropolarimeter (Jasco). All spectra were recorded at room temperature, and the baseline control containing all of the substances except protein. […]

A further test addresses β-catenin/cadherin PPI (Homo sapiens (Human), UniProt P35222). Description: AlphaScreen selectivity assay, β-catenin/BCL9 over β-catenin/cadherin PPIs. Format: binding. As to conditions: in-parallel AlphaScreen selectivity assay. An excerpt:
Human BCL9 (residues 350-375), N-terminally biotinylated human BCL9 (residues 350-375), N-terminally fluorescein-labeled human BCL9 (residues 350-375), and N-terminally biotinylated human E-cadherin (residues 824-877) were synthesized by InnoPep Inc. (www.innopep.com) and HPLC purified by HPLC with purity>95%. The structures were validated by LC/MS. The sequences of these peptides have been described previously.^6
The experimental details of the AlphaScreen competitive inhibition assays for the β-catenin/BCL9 and β-catenin/E-cadherin PPIs have been described previously.^5 The concentrations of mutant β-catenin proteins used in the AlphaScreen competitive inhibition assays were the same as that of wild-type β-catenin protein.
The AlphaScreen selectivity assay was used to quantify inhibitor selectivity.

The test system of test [1] is pcDNA3.1-β-catenin transfected HEK293 cells, FOPFlash (mutant Tcf binding sites). Description: FOPFlash luciferase reporter assay. As to conditions: up to 100 μM. Format: cell-based. On the procedure: (§4) 27. Cell Transfection and Luciferase Assay
(§5) FuGENE 6 (E2962, Promega) in a 96-well plate format was used for the transfection of HEK293 and SW480 cells according to the manufacturer's instructions. HEK293 cells were co-transfected with 45 ng of the TOPFlash (with three wild-type Tcf binding sites) or FOPFlash (with three mutant Tcf binding sites) reporter gene, 135 ng pcDNA3.1-β-catenin and 20 ng pCMV-RL normalization reporter gene. SW480 cells were co-transfected with 60 ng of the TOPFlash or FOPFlash reporter gene and 40 ng pCMV-RL normalization reporter. Cells were cultured at 37° C. for 24 h, and different concentrations of inhibitors were then added. After 24 h, the luciferase reporter activity was measured using the Dual-Glo system (E2940, Promega). Normalized luciferase activity in response to the treatment with the inhibitors was compared with that obtained from the cells treated with DMSO. Experiments were performed in triplicate.
(In general: Reporter assays use an easily measured gene product as a stand-in for the process of interest.)

A further test addresses β-catenin E155A/BCL9 PPI (Homo sapiens (Human), UniProt P35222, E155A). Description: AlphaScreen competitive inhibition assay, β-catenin E155A mutant/BCL9 PPI. The class given is binding. On the procedure: as §3
In test [2] the target is β-catenin D145A/E155A double mutant/BCL9 interaction (Homo sapiens (Human), UniProt P35222, D145A/E155A). The experiment in a line: AlphaScreen competitive inhibition assay, β-catenin D145A/E155A double mutant/BCL9 interaction. The class given is binding. As to conditions: read-out: Ki ± SD. The procedure:
as §3

For test [3], the system named is pcDNA3.1-β-catenin transfected HEK293 cells, TOPFlash (wild-type Tcf binding sites). The experiment in a line: TOPFlash Wnt-responsive luciferase reporter assay. The class given is cell-based. As to conditions: 24 h treatment, hydrochloride. The procedure: as §4, §5

Sequence of β-catenin/BCL9 PPI (P35222 138-686): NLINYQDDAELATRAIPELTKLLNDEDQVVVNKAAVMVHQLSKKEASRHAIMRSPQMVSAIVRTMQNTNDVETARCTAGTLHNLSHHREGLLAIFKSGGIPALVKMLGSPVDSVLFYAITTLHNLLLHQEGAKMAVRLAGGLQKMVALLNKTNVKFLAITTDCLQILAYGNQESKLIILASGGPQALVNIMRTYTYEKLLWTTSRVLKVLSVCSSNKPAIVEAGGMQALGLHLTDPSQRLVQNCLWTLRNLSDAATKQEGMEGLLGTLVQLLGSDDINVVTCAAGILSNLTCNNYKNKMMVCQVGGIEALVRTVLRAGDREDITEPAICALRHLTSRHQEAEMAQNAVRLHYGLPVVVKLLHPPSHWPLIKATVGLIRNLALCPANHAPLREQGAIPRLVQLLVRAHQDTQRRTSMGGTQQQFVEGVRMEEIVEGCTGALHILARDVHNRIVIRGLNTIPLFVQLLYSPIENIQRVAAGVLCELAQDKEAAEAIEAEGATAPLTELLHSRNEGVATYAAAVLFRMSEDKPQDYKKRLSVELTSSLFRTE
Sequence of β-catenin E155A/BCL9 PPI (P35222 138-686 E155A): as the sequence (P35222 138-686) above, with E18A counted along it
Sequence of β-catenin D145A/BCL9 PPI (P35222 138-686 D145A): as the sequence (P35222 138-686) above, with D8A counted along it
Sequence of β-catenin D145A/E155A double mutant/BCL9 interaction (P35222 138-686 D145A/E155A): as the sequence (P35222 138-686) above, with D8A, E18A counted along it
Sequence of β-catenin/cadherin PPI (P35222 138-686): as the sequence (P35222 138-686) above

`O=C(c1cc(F)cc(N2CCNCC2)c1)N1CCN(C(=O)c2ccc(O[C@H]3CCNC3)c(-c3ccc(F)cc3)c2)CC1` [Compound 2, (S)-(4-(3-fluoro-5-(piperazin-1-yl)benzoyl)piperazin-1-yl) (4′-fluoro-6-(pyrrolidin-3-yloxy)-[1,1′-biphenyl]-3-yl) methanone hydrochloride] had a Ki at β-catenin/BCL9 PPI of 19 µM. The IC50 was 86 ± 8.8 µM in the test with SW480 cells (Homo sapiens, SW480 colorectal cancer cells, MTS, 72 h) and 120 ± 16 µM in the test with HCT116 cells (Homo sapiens, HCT-116, HCT116 colorectal cancer cells, MTS, 72 h).
On to `Cl.Cl.O=C(c1cc(F)cc(N2CCNCC2)c1)N1CCN(C(=O)c2ccc(O[C@H]3CCNC3)c(C3CCCCC3)c2)CC1` [Compound 10, (S)-(4-(3-Cyclohexyl-4-(pyrrolidin-3-yloxy)benzoyl)piperazin-1-yl) (3-fluoro-5-(piperazin-1-yl)phenyl) methanone hydrochloride], for which the “Ki fold higher than for wild-type β-catenin/BCL9 PPI” value at β-catenin D145A/BCL9 PPI (β-catenin D145A/BCL9 PPI vs wild type) and on β-catenin E155A/BCL9 PPI (β-catenin E155A/BCL9 PPI vs wild type) was 6-8 fold each time. The inhibition constant Ki turned out to be 29 ± 3 µM on β-catenin D145A/BCL9 PPI (β-catenin D145A/BCL9 PPI, AlphaScreen competitive inhibition, read-out: Ki ± SD); 5.2 µM at β-catenin/BCL9 PPI; 39 ± 3.3 µM at β-catenin E155A/BCL9 PPI (β-catenin E155A/BCL9 PPI, AlphaScreen competitive inhibition, read-out: Ki ± SD); 53 ± 4.2 µM in test [2]. The “selectivity for β-catenin/BCL9 over β-catenin/cadherin PPIs” value on β-catenin/cadherin PPI is listed as 98 fold. Further, in test [1], the FOPFlash luciferase activity entry is reported as “did not affect”. Further, the IC50 in the test on SW480 cells (Homo sapiens, SW480, 72 h) was determined as 22 ± 4 µM; with HCT116 cells (Homo sapiens, HCT-116, 72 h), 26 ± 6.6 µM. Besides, in test [3], the TOPFlash luciferase activity result is given as “suppressed the TOPFlash (with wild-type Tcf binding sites) luciferase activity in a dose-dependent manner; also recorded: suppress the transactivation of canonical Wnt signaling”.
Take `CC1CCC(c2cc(C(=O)N3CCN(C(=O)c4cc(F)cc(N5CCNCC5)c4)CC3)ccc2O[C@H]2CCNC2)CC1.Cl` (stereo partly drawn) [Compound 12, (S)-(4-(3-fluoro-5-(piperazin-1-yl)benzoyl)piperazin-1-yl) (3-(4-methylcyclohexyl)-4-(pyrrolidin-3-yloxy)phenyl) methanone hydrochloride]: the IC50 turned out to be 44 ± 6.5 µM in the test on SW480 cells (SW480 colorectal cancer cells, MTS, 72 h) and 39 ± 5.4 µM in the test with HCT116 cells (HCT116 colorectal cancer cells, MTS, 72 h). For the same molecule, the TOPFlash luciferase activity entry in test [3] is given as “suppressed the TOPFlash (with wild-type Tcf binding sites) luciferase activity in a dose-dependent manner; also recorded: suppress the transactivation of canonical Wnt signaling”.
